Measured values as given in PubChem BioAssay AID1963841 (Molecular Pharmacology Branch, DTP, NCI, 2024).

Tested on: 439559-082-T-J2-PDC spheroid viability
Experiment: Anticancer human tumor 439559-082-T-J2-PDC patient-derived colon adenocarcinoma cell line growth inhibition [POLQ]
Conditions: spheroids with HUVEC and MSC; for IC50: curve of first compound; for viability, T/C: stronger effect = lower value
Description: Multicellular complex tumor spheroid response to Polymerase (POL) inhibitors (novobiocin, ART-558, RP6685) in combination with a variety of drugs and investigational agents in selected tumor cell lines
The POL inhibitors (novobiocin, ART-558, and RP6685) were evaluated both individually and in combination with standard of care and investigational anticancer small molecules within a complex spheroid model of solid tumors. . Complex spheroids include a stromal component modeled by human endothelial cells (HUVEC) and fibroblasts modeled by human mesenchymal stem cells (MSCs). The concentration ranges selected for each drug and investigational agent were based upon clinically achievable concentrations if the clinical Cmax of the agent was known.
Compounds. The drugs and investigational agents: novobiocin (NSC847541), ART-558 (NSC835418), RP-6685 (NSC848927), peposertib (NSC802822), ceralasertib (NSC780249), elimusertib (NSC800525), camonsertib (NSC841442), AZD-1390 (NSC803789), olaparib (NSC753686), talazoparib (NSC767125), rucaparib (NSC756644), sotorasib (NSC818433), MRTX-1133 (NSC836407), SN-38 (NSC673596), topotecan (NSC609699), epotoside (NSC141540), doxorubicin (NSC123127), gemcitabine (NSC613327), 5-fluorouracil (NSC19893), paclitaxel (NSC125973), vemurafenib (NSC761431), MSA-2 (NSC828583), SN-011 (NSC837082), adavosertib (NSC754352), prexasertib (NSC758257), carboplatin (NSC241240) and oxaliplatin (NSC266046), were obtained from the National Cancer Institute (NCI) Developmental Therapeutics Program Chemical Repository (21). The FDA-approved anticancer drug set is available from the Developmental Therapeutics Program at https://dtp.cancer.gov/organization/dscb/obtaining/. […] The stock solutions were prepared in dimethyl sulfoxide (DMSO, Sigma-Aldrich, St. Louis, MO, cat. D2650), except for the platinum compounds which were prepared in saline (Quality Biological, Gaithersburg, MD, cat. 114-055-101), at 800-fold the tested concentration and stored at -70 degrees C prior to their use. All drugs and investigational agents were tested over a range starting from a high concentration at or near the clinical Cmax and decreasing in half-log increments. If the clinical Cmax for an agent had not been determined, the highest concentration tested was 10 microM, except for SN-38, which was tested at a high concentration of 1 microM.
Cell Culture. All cells were maintained in an incubator at 37 degrees C and 5% CO2 with 95% humidity. The PDC lines were cultured according to standard operating procedures established by the NCI PDMR (https://pdmr.cancer.gov). Table 3 of the manuscript, lists the cell lines along with the number of the three cell types plated to form the mct-spheroids and media for tumor cell growth. After thawing, all PDC lines, except 997537-175-T-J1-PDC and 415267-285-R-J2-PDC, were cultured in Matrigel-coated flasks prepared with a working solution of 1X Ham's F-12 nutrient mix, without supplementation (Thermo Fisher Scientific, cat. 11765054), 100 U/mL penicillin-streptomycin (Thermo Fisher Scientific, cat. 15140122), and 2.5% Matrigel (Corning Inc., Corning, NY, cat. 354248) for the first three passages. The two PDC lines 997537-175-T-J1-PDC and 415267-285-R-J2-PDC were cultured on uncoated flasks. The 857933-349-R-J2-PDC line was cultured in 6C/Colon 1B media containing advanced DMEM/F-12 (Thermo Fisher Scientific, cat. 12634028), 10 mM HEPES (Thermo Fisher Scientific, cat. 15630080), 1X GlutaMAX supplement (Thermo Fisher Scientific, cat. 35050061), 0.1 mg/mL primocin (InvivoGen, San Diego, CA, cat. ant-pm-2), 10% defined fetal bovine serum, heat inactivated (HyClone Laboratories Inc., Logan, UT, cat. SH30070.03HI), 50% L-WRN conditioned media (ATCC, cat. CRL-3276), 1.25 mM N-Acetyl-L-cysteine (Sigma-Aldrich, cat. A9165), 10 mM nicotinamide (Sigma-Aldrich, cat. N0636), 1X B-27 supplement (Thermo Fisher Scientific, cat. 17504044), 1X N-2 supplement (Thermo Fisher Scientific, cat. […]

[1] = second compound 0.0316 µM, first compound 0.0316 µM
[2] = second compound 0.0316 µM, first compound 0.1 µM
[3] = second compound 0.0316 µM, first compound 0.316 µM
[4] = second compound 0.0316 µM, first compound 1 µM
[5] = second compound 0.1 µM, first compound 0.0316 µM
[6] = second compound 0.1 µM, first compound 0.1 µM
[7] = second compound 0.1 µM, first compound 0.316 µM
[8] = second compound 0.1 µM, first compound 1 µM
[9] = second compound 0.316 µM, first compound 0.0316 µM
[10] = second compound 0.316 µM, first compound 0.1 µM
[11] = second compound 0.316 µM, first compound 0.316 µM
[12] = second compound 0.316 µM, first compound 1 µM
[13] = second compound 1 µM, first compound 0.0316 µM
[14] = second compound 1 µM, first compound 0.1 µM
[15] = second compound 1 µM, first compound 0.316 µM
[16] = second compound 1 µM, first compound 1 µM
[17] = second compound 3.16 µM, first compound 0.0316 µM
[18] = second compound 3.16 µM, first compound 0.1 µM
[19] = second compound 3.16 µM, first compound 0.316 µM
[20] = second compound 3.16 µM, first compound 1 µM
[21] = second compound 10 µM, first compound 0.0316 µM
[22] = second compound 10 µM, first compound 0.1 µM
[23] = second compound 10 µM, first compound 0.316 µM
[24] = second compound 10 µM, first compound 1 µM
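Also: spheroids exposed to compounds for seven days before readout.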
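For viability, T/C in this document: 100% = DMSO vehicle control viability.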

How did the IC50 (second compound 0.0316 µM) turn out when `COc1cccc(OCCCN)c1-c1cc(Nc2cnc(C#N)cn2)n[nH]1` + Cc1cccc(N(C)C(=O)C2C(O)CCN2c2nc(C)cc(C(F)(F)F)c2C#N)c1 was run?
Its IC50 is 0.274 µM.

What about the IC50 (second compound 0.1 µM) of the same compound?
The IC50 was 0.319 µM.

What about the IC50 (second compound 0.316 µM) of the same compound?
The IC50 was 0.299 µM.

And the IC50 (second compound 1 µM)?
Its IC50 is 0.398 µM.

And the IC50 (second compound 3.16 µM)?
Its IC50 is 0.291 µM.

And the IC50 (second compound 10 µM)?
The IC50 was 0.15 µM.

And the viability, T/C (second compound 0.0316 µM, first compound 0.00316 µM)?
The viability, T/C was 99.3%.

And the viability, T/C (second compound 0.0316 µM, first compound 0.01 µM)?
Its viability, T/C is 99.7%.

And the viability, T/C [1]?
The viability, T/C was 71%.

What about the viability, T/C [2] of the same compound?
Its viability, T/C is 77.9%.

And the viability, T/C [3]?
The viability, T/C was 44.8%.

What about the viability, T/C [4] of the same compound?
The viability, T/C was 18.5%.

And the viability, T/C (second compound 0.1 µM, first compound 0.00316 µM)?
The viability, T/C was 100%.

What about the viability, T/C (second compound 0.1 µM, first compound 0.01 µM) of the same compound?
The viability, T/C was 74.7%.

What about the viability, T/C [5] of the same compound?
Its viability, T/C is 71.1%.

What about the viability, T/C [6] of the same compound?
The viability, T/C was 78.1%.

And the viability, T/C [7]?
Its viability, T/C is 49.5%.

And the viability, T/C [8]?
The viability, T/C was 19.9%.

And the viability, T/C (second compound 0.316 µM, first compound 0.00316 µM)?
The viability, T/C was 104%.

What about the viability, T/C (second compound 0.316 µM, first compound 0.01 µM) of the same compound?
Its viability, T/C is 83.8%.

What about the viability, T/C [9] of the same compound?
The viability, T/C was 84.8%.

What about the viability, T/C [10] of the same compound?
The viability, T/C was 68.7%.

What about the viability, T/C [11] of the same compound?
Its viability, T/C is 51%.

What about the viability, T/C [12] of the same compound?
The viability, T/C was 19.8%.

What about the viability, T/C (second compound 1 µM, first compound 0.00316 µM) of the same compound?
Its viability, T/C is 110%.

What about the viability, T/C (second compound 1 µM, first compound 0.01 µM) of the same compound?
The viability, T/C was 94.2%.

What about the viability, T/C [13] of the same compound?
The viability, T/C was 82.5%.

And the viability, T/C [14]?
The viability, T/C was 77.5%.

And the viability, T/C [15]?
The viability, T/C was 64.2%.

What about the viability, T/C [16] of the same compound?
Its viability, T/C is 20.9%.

What about the viability, T/C (second compound 3.16 µM, first compound 0.00316 µM) of the same compound?
Its viability, T/C is 87.6%.

And the viability, T/C (second compound 3.16 µM, first compound 0.01 µM)?
Its viability, T/C is 102%.

What about the viability, T/C [17] of the same compound?
The viability, T/C was 81.7%.

And the viability, T/C [18]?
Its viability, T/C is 74.9%.

And the viability, T/C [19]?
The viability, T/C was 48.1%.

And the viability, T/C [20]?
Its viability, T/C is 19.4%.

And the viability, T/C (second compound 10 µM, first compound 0.00316 µM)?
Its viability, T/C is 101%.

What about the viability, T/C (second compound 10 µM, first compound 0.01 µM) of the same compound?
The viability, T/C was 86.9%.

And the viability, T/C [21]?
The viability, T/C was 94.5%.

What about the viability, T/C [22] of the same compound?
The viability, T/C was 63.2%.

And the viability, T/C [23]?
The viability, T/C was 25.1%.

And the viability, T/C [24]?
The viability, T/C was 16.2%.

Which IC50 (second compound 0.0316 µM) does the source give for `O=C(c1cc(Cc2n[nH]c(=O)c3ccccc23)ccc1F)N1CCN(C(=O)C2CC2)CC1` + Cc1cccc(N(C)C(=O)C2C(O)CCN2c2nc(C)cc(C(F)(F)F)c2C#N)c1 here?
The IC50 was > 10 µM.

And the IC50 (second compound 0.1 µM)?
Its IC50 is > 10 µM.

And the IC50 (second compound 0.316 µM)?
The IC50 was > 10 µM.

What about the IC50 (second compound 1 µM) of the same compound?
Its IC50 is > 10 µM.

And the IC50 (second compound 3.16 µM)?
Its IC50 is > 10 µM.

And the IC50 (second compound 10 µM)?
The IC50 was > 10 µM.

And the viability, T/C [1]?
Its viability, T/C is 95.8%.

And the viability, T/C [2]?
The viability, T/C was 103%.

What about the viability, T/C [3] of the same compound?
Its viability, T/C is 107%.

What about the viability, T/C [4] of the same compound?
The viability, T/C was 107%.

What about the viability, T/C (second compound 0.0316 µM, first compound 3.16 µM) of the same compound?
The viability, T/C was 95%.

What about the viability, T/C (second compound 0.0316 µM, first compound 10 µM) of the same compound?
Its viability, T/C is 92.1%.

And the viability, T/C [5]?
The viability, T/C was 103%.

And the viability, T/C [6]?
The viability, T/C was 98.7%.

What about the viability, T/C [7] of the same compound?
The viability, T/C was 101%.

What about the viability, T/C [8] of the same compound?
Its viability, T/C is 109%.

And the viability, T/C (second compound 0.1 µM, first compound 3.16 µM)?
Its viability, T/C is 94.4%.

And the viability, T/C (second compound 0.1 µM, first compound 10 µM)?
The viability, T/C was 101%.

What about the viability, T/C [9] of the same compound?
Its viability, T/C is 103%.

What about the viability, T/C [10] of the same compound?
Its viability, T/C is 100%.

And the viability, T/C [11]?
Its viability, T/C is 98.4%.

And the viability, T/C [12]?
The viability, T/C was 108%.

And the viability, T/C (second compound 0.316 µM, first compound 3.16 µM)?
Its viability, T/C is 102%.

What about the viability, T/C (second compound 0.316 µM, first compound 10 µM) of the same compound?
Its viability, T/C is 97.1%.

And the viability, T/C [13]?
The viability, T/C was 103%.

And the viability, T/C [14]?
The viability, T/C was 106%.

What about the viability, T/C [15] of the same compound?
Its viability, T/C is 102%.

And the viability, T/C [16]?
Its viability, T/C is 103%.

What about the viability, T/C (second compound 1 µM, first compound 3.16 µM) of the same compound?
Its viability, T/C is 98.8%.

And the viability, T/C (second compound 1 µM, first compound 10 µM)?
The viability, T/C was 98.8%.

What about the viability, T/C [17] of the same compound?
The viability, T/C was 94%.

What about the viability, T/C [18] of the same compound?
Its viability, T/C is 106%.

And the viability, T/C [19]?
Its viability, T/C is 98.4%.

What about the viability, T/C [20] of the same compound?
Its viability, T/C is 98.3%.

What about the viability, T/C (second compound 3.16 µM, first compound 3.16 µM) of the same compound?
Its viability, T/C is 103%.

What about the viability, T/C (second compound 3.16 µM, first compound 10 µM) of the same compound?
The viability, T/C was 95.2%.

And the viability, T/C [21]?
Its viability, T/C is 97.9%.

What about the viability, T/C [22] of the same compound?
Its viability, T/C is 91.4%.

And the viability, T/C [23]?
The viability, T/C was 95.3%.

What about the viability, T/C [24] of the same compound?
The viability, T/C was 98.3%.

What about the viability, T/C (second compound 10 µM, first compound 3.16 µM) of the same compound?
Its viability, T/C is 97.5%.

And the viability, T/C (second compound 10 µM, first compound 10 µM)?
Its viability, T/C is 83.6%.
